In series [1] the test system is Staphylococcus aureus 019 MRSA (ATCC 33591). In words: MIC by broth microdilution, Staphylococcus aureus 019 MRSA. It is filed as cell-based. As to conditions: DRCC 019, MRSA, broth microdilution in MHB, read-out: Antimicrobial Screening (MIC) Staphylococcus aureus 019 MRSA. Here is the method: (§1) Minimum Inhibiton Concentrations (MICs) were determined by broth microdilution technique as per the guidelines prescribed in the fifth edition of Approved Standards, NCCLS document M7-A5 Vol 20-No 2, 2000 Villinova, Pa.
(§2) Initial stock solution of the test compound was prepared in DMSO. Subsequent two fold dilutions were carried out in sterile Mueller Hinton Broth (Difco) (MHB).
(§3) Frozen cultures stocks were inoculated into 50 ml sterile MHB in 250 ml Erlyn Meyer flasks.
(§4) Composition of MHB is as follows:
(§5) Flasks were incubated for 4 to 5 h at 35° C. on a rotary shaker at 150 rpm. Inoculum was prepared by diluting the culture in sterile MHB to obtain a turbidity of 0.5 McFarland standard. This corresponds to 1-2×10^8 CFU/ml. The stock was further diluted in sterile broth to obtain 1-2×10^6 CFU/ml. 50 μl of the above diluted inoculum was added from 1-10 wells. The plates were incubated overnight at 37° C.
A general note: In broth dilution the organism is exposed to a series of concentrations in liquid medium.

In series [2] the test system is Staphylococcus aureus 213 Smith S (ATCC 49951). Kind of series: MIC by broth microdilution, Staphylococcus aureus 213 Smith S. The format is cell-based. The note with it: ATCC49951, DRCC 213, Smith S, broth microdilution in MHB, read-out: Antimicrobial Screening (MIC) Staphylococcus aureus 213 Smith S. Here is the method: as §1, §2, §3, §4, §5
In series [3] the test system is Staphylococcus aureus 035 S (ATCC 29213). Kind of series: MIC by broth microdilution, Staphylococcus aureus 035 S. It is filed as cell-based. As to conditions: ATCC29213, DRCC 035, S, broth microdilution in MHB, read-out: Antimicrobial Screening (MIC) Staphylococcus aureus 035 S. On the procedure:
as §1, §2, §3, §4, §5

Series [4] concerns Enterococcus sp 034 S (Enterococcus faecalis ATCC 29212). Kind of series: MIC by broth microdilution, Enterococcus sp 034 S. The format is cell-based. As to conditions: ATCC29212, DRCC 034, S, broth microdilution in MHB, read-out: Antimicrobial Screening (MIC) Enterococcus sp 034 S. Here is the method: as §1, §2, §3, §4, §5
Series [5] deals with Enterococcus sp 153 R (Enterococcus faecalis NCTC 12201). Kind of series: MIC by broth microdilution, Enterococcus sp 153 R. It is filed as cell-based. The note with it: NCTC12201, DRCC 153, R, broth microdilution in MHB, read-out: Antimicrobial Screening (MIC) Enterococcus sp 153 R. On the procedure:
as §1, §2, §3, §4, §5

Series [6] relates to Enterococcus sp 154 R (Enterococcus faecium NCTC 12202). Kind of series: MIC by broth microdilution, Enterococcus sp 154 R. The format is cell-based. As to conditions: NCTC12202, DRCC 154, R, broth microdilution in MHB, read-out: Antimicrobial Screening (MIC) Enterococcus sp 154 R. On the procedure:
as §1, §2, §3, §4, §5

The subject of a further series is Mycobacterium MTCC 006. In words: MIC by broth microdilution, Mycobacterium MTCC 006. It is filed as cell-based. As to conditions: MTCC006, broth microdilution in MHB, read-out: Antimicrobial Screening (MIC) Mycobacterium MTCC 006. On the procedure: as §1, §2, §3, §4, §5
The test system of another series is Salmorella TA 97. In words: MIC by broth microdilution, Salmorella TA 97. The format is cell-based. The note with it: read-out: Antimicrobial Screening (MIC) Salmorella TA 97. On the procedure: as §1, §2, §3, §4, §5
For series [7], the system named is M. catarrhalis 300 (Moraxella catarrhalis ATCC 25238). Kind of series: MIC by broth microdilution, M. catarrhalis 300. The format is cell-based. As to conditions: ATCC25238, DRCC 300, broth microdilution in MHB, read-out: Antimicrobial Screening (MIC) M. catarrhalis 300. On the procedure:
as §1, §2, §3, §4, §5

Series [8] relates to H. influenzae 432 (Haemophilus influenzae ATCC 49247). Kind of series: MIC by broth microdilution, H. influenzae 432. It is filed as cell-based. As to conditions: ATCC49247, DRCC 432, broth microdilution in MHB, read-out: Antimicrobial Screening (MIC) H. influenzae 432. On the procedure: as §1, §2, §3, §4, §5
Series [9] concerns H. influenzae 433 (Haemophilus influenzae ATCC 49766). In words: MIC by broth microdilution, H. influenzae 433. The format is cell-based. As to conditions: ATCC49766, DRCC 433, broth microdilution in MHB, read-out: Antimicrobial Screening (MIC) H. influenzae 433. Here is the method: as §1, §2, §3, §4, §5
The subject of series [10] is H. influenzae 529 (Haemophilus influenzae ATCC 9006). In words: MIC by broth microdilution, H. influenzae 529. The format is cell-based. The note with it: ATCC9006, DRCC 529, broth microdilution in MHB, read-out: Antimicrobial Screening (MIC) H. influenzae 529. Here is the method:
as §1, §2, §3, §4, §5

≈ marks a conversion by molar mass, not a printed value.

What is called melting point is the temperature of the solid-liquid transition. `CCCOC(=S)NC[C@H]1CN(c2cc(F)c(N3CNC(=O)C3)c(F)c2)C(=O)O1` [Example 165] showed a melting point of 186 to 188 °C. In addition, the MIC in [1] turned out to be 1 µg/mL (≈ 2.41 µM). The MIC in [2] stood at 1 µg/mL (≈ 2.41 µM). Besides, in [3], the MIC amounted to 1 µg/mL (≈ 2.41 µM). Moreover, the MIC in series [4] came to 2 µg/mL (≈ 4.83 µM). Also, in series [5], the MIC stood at 2 µg/mL (≈ 4.83 µM). For the same compound, the MIC in [6] is 2 µg/mL (≈ 4.83 µM). Moreover, the MIC in the series with Mycobacterium MTCC 006 is 32 µg/mL (≈ 77.2 µM). The MIC with Salmorella TA 97 stood at 32 µg/mL (≈ 77.2 µM). In addition, the MIC in series [7] is greater than 32 µg/mL. Moreover, the MIC in series [8] was greater than 32 µg/mL. Further, in [9], the MIC is greater than 32 µg/mL. Besides, in series [10], the MIC is greater than 32 µg/mL.
